Legend:
[1] = target: T1, bovine serum albumin (BSA) (Bos taurus, UniProt P02769); test: Albumin binding by tryptophan fluorescence quenching (BSA); conditions: for ΔΙ/Ιο, quenching of the BSA fluorescence: BSA 3 μM, λex 295 nm; for BSA-binding constant K: Scatchard equation; for BSA-quenching constant kq: from Stern–Volmer plots, τo 10^-8 s; for % relative BSA fluorescence emission intensity I/Io remaining (% of initial): final value, pH 7.0
T1 construct: purchased Sigma–Aldrich Co
Description: Serum albumins are among the important proteins of the circulatory system. Their main role is to carry drugs and other bioactive small molecules through the bloodstream. BSA and HSA are structurally homologous albumins, having two and one tryptophan residues, respectively. The tryptophan residues of both albumins are responsible for the intense fluorescence emission band with λem,max = 342 nm for BSA and 350 nm for HSA, respectively, when their solutions are excited at 295 nm. […] The inner-filter effect was calculated with Equation (S4) and it was found too low to affect the measurements.
When the compounds were added to a solution of the albumins (3 μM), a significant quenching of the BSA (λem = 342 nm) and HSA (λem = 350 nm) fluorescence emission bands was observed (Figure 7) which was more pronounced in the case of BSA (Table 7 and Figure 8). […] The observed quenching may be ascribed to changes in the tryptophan environment of SA resulting from possible denaturation of their secondary structure, induced by the binding of the complexes to the albumins. […]
Io =1+ k τ [Q] =1+ K [Q] […]
S3Albumin -binding studies
In order to investigate if the compounds can bind to carrier proteins like serum albumins, we carried out albumin binding study by tryptophan fluorescence quenching experiments using bo vine serum albumin (BSA, 3 μM) in buffer (containing 15 mM trisodium citrate and 150 mM NaCl at pH 7.0). The quenching of the emission intensity of tryptophan residues of BSA at 343 nm was monitored using the co mpounds as que ncher s with increasing concentration [S4]. The fluo rescence emission spectra of the compounds were also recorded with λex = 295 nm. No fluorescence emission band was recorded and thus it was not related to the compounds . The influence of the inner-filter effect [S6] on the measurements wa s evaluated by equation S4.
Where Icorr = corrected intensity, Imeas = the measured intensity, c = the concentration of the quencher, d = the cuvette (1 cm), ε (λexc ) and ε(λe m) = the ε of the quencher at the excitation and the emission wavelength, respectively, as calculated from the UV-vis spectra of the […]
The Stern-Volmer and Scatchard graphs are used to study the interaction of the compounds with serum albumins. According to Stern-Volmer quenching equation (eq.
S2), where Io = the initial tryptophan fluorescence intensity of SA, I = the tryptophan fluorescence intensity of SA after the addition of the quencher, kq = the quenching […]
constant, KSV = the Stern-Volmer constant, τo = the average lifetime of SA without the quencher, and, tak ing as fluorescence lifet ime (τo) of tryptophan in SA at around 10-8 s [S 4] , KSV (in M -1) can be obtained by the slope of the diagram Io/I versus [compound] (Stern-Volmer plots), and subsequently the quenching (kq, in M -1s-1) may be calculated from eq.
From the Scatchard equation (eq. S5): […]
where n is the number of binding sites per albumin and K is the SA-binding constant (K, in M -1) is calculated from the slope in plots (ΔI/Io)/[complex] versus ΔI/Io and n is given by the ratio of y intercept to the slope [S7].
S1 Kontogiorgis, C.; Hadjipavlou–Lit ina, D. Biological Evaluat ion of Several Coumarin Derivatives Designed as Possible Anti–inflammatory/Antioxidant Agents. J. Enz. Inhib.
S2 Ruch, R.J.; Cheng, C.; Klaunig, J.E. Prevention of cytotoxicity and inhibition of intercellular communication by antioxidant catechins isolated from Chinese green tea.
S3 Wolfe, A.; Shimer, G.; Meehan, T. Polycyclic Aromatic Hydrocarbons Physically Intercalate into Duplex Regions of Denatured DNA. Biochemistry 1987, 26, 6392–6396.
S4 Lakowicz, J.R. Principles of Fluorescence Spectroscopy , 3rd ed.; Plenum Press: New […]
S5 Heller, D.P.; Greenstock, C.L. Fluorescence lifetime analysis of DNA intercalated ethid ium bromide and quench ing by free dye. Biophys. Chem.1994,50, 305–312.
S6 Stella, L.; Capodilupo, A.L.; Bietti, M. A reassessment of the association between […]
azulene and [60]fullerene. […]

[2] = ABTS radical cation scavenging assay; type: biochemical; conditions: compound 0.1 mM, 1 min
Description: For the above reasons, the antioxidant ability of 5–F–saloH and Cu(II) complexes 1–5 has been evaluated via their scavenging activity towards DPPH and ABTS radicals, as well as the ability to reduce H2O2, and in comparison with that of well-known antioxidant agents such as nordihydroguaiaretic acid (NDGA), butylated hydroxytoluene (ΒHΤ), 6–hydroxy–2,5,7,8–tetramethylchromane–2–carboxylic acid (trolox) and L–ascorbic acid (these are the most commonly used standard reference antioxidant agents). The DPPH-radical assay was developed in the 1950s and this method has been used to assess the antioxidant capacity of several metal complexes. The DPPH–scavenging ability of compounds has often been related to their ability to prevent ageing, cancer and inflammation. The ability of a compound to scavenge the cationic ABTS radicals (ABTS^+●) has been considered a measure of its total antioxidant activity. Further, hydrogen peroxide has the ability to penetrate biological membranes and, although it is not very reactive itself, it can sometimes be toxic since it may give rise to hydroxyl radicals in cells. For this reason, the removal of H2O2 is very important for the protection of living systems. When a compound is incubated with H2O2 using a peroxidase assay system, the loss of H2O2 can be measured.
S1 Antioxidant activity assay
The antioxidant activity of the compounds was evaluated via their ability to scavenge in vitro free radicals such as DPPH and ABTS and to reduce H 2O2. All the experiments were carried out at least in triplicate and the standard deviation of absorbance was less than 10% of the mean. […]
S1.2 Assay of radical cation ABTS-scavengin g activity
The ABTS assay was performed to determine the activity of the compounds to scavenge the radical cation ABTS. Initially, a water solution of ABTS was prepared (2 mM). ABTS radical cation (ABTS+·) was produced by the reaction of ABTS stock solution with potassium persulfate (0.17 mM) and the mixture was stored in the dark at room temperature for 12-16 h before its use. The ABTS was oxidized incompletely because the stoichiometric reaction ratio of ABTS and potassium persulfate is 1:0.5. The absorbance became maximal and stable only after more than 6 h of reaction although the oxidation of the ABTS started immediately. The radical was stable in this form for more than 2 days when allowed to stand in the dark at room temperature. Afterwards, the ABTS+· solution was diluted in ethanol to an absorbance of 0.70 at 734 nm and 10 μL of diluted compounds or standards (0.1 mM) in DMSO were added. The absorbance was recorded out exactly 1 min after init ial m ix in g [S 1]. The ABTS radical scavenging act ivit y was expressed as the percentage inhibition of the absorbance of the initial ABTS solution (ABTS%). Trolox was used as an appropriate standard. […]

T1 sequence (P02769 25-607): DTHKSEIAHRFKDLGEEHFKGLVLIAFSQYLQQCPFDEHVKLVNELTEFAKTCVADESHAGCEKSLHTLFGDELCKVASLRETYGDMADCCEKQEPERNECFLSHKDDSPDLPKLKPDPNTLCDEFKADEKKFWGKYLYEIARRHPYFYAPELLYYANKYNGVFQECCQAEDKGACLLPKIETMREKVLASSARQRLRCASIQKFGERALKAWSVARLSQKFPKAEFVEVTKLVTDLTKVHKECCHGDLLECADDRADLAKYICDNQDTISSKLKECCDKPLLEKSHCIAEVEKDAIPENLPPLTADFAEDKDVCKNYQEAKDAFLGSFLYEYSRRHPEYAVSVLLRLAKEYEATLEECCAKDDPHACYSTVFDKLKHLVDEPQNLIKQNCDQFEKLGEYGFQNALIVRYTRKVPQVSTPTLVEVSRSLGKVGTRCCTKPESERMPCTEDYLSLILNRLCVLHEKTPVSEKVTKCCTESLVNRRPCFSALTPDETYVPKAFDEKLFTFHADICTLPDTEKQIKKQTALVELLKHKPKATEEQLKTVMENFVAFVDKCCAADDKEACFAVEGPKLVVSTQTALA

| SMILES | ΔΙ/Ιο, quenching of the BSA fluorescence [1] | BSA-binding constant K [1] | BSA-quenching constant kq [1] | ABTS%, % ABTS–scavenging activity [2] | % relative BSA fluorescence emission intensity I/Io remaining (% of initial) [1] |
| --- | --- | --- | --- | --- | --- |
| O=Cc1cc(F)ccc1[O-].O=[N+]([O-])[O-].[Cu+2].c1ccc(-c2ccccn2)nc1 [Complex 5, [Cu(5–F–salo)(bipy)(NO3)]] | 68.3% | 3.23 (±0.12) × 10^5 M^−1 | 1.87 (±0.09) × 10^13 M^−1 s^−1 | 7.36 ± 0.08% | – |
| CO.Cc1ccc2ccc3ccc(C)nc3c2n1.O=Cc1cc(F)ccc1[O-].[Cl-].[Cu+2] [Complex 3, [Cu(5–F–salo)(neoc)Cl].CH3OH] | 84.3% | 2.51 (±0.10) × 10^5 M^−1 | 2.75 (±0.10) × 10^13 M^−1 s^−1 | 46.03 ± 0.60% | 15.7% |
| O=Cc1cc(F)ccc1[O-].[Cl-].[Cu+2].c1ccc(Nc2ccccn2)nc1 [Complex 2, [Cu(5–F–salo)(bipyam)Cl]] | 54.0% | 3.15 (±0.18) × 10^4 M^−1 | 6.49 (±0.14) × 10^12 M^−1 s^−1 | 48.89 ± 0.38% | 46.0% |
| O=Cc1cc(F)ccc1[O-].O=Cc1cc(F)ccc1[O-].[Cu+2] [Complex 1, [Cu(5–F–salo)2]] | 62.5% | 4.05 (±0.02) × 10^4 M^−1 | 9.38 (±0.28) × 10^12 M^−1 s^−1 | 78.89 ± 0.18% | 37.5% |
| O=Cc1cc(F)ccc1[O-].O=[N+]([O-])[O-].[Cu+2].c1cnc2c(c1)ccc1cccnc12 [Complex 4, [Cu(5–F–salo)(phen)(NO3)]] | 75.3% | 2.35 (±0.10) × 10^5 M^−1 | 1.62 (±0.06) × 10^13 M^−1 s^−1 | 48.14 ± 0.35% | 24.7% |

— paper PMC9782626, “Copper(II) Complexes of 5–Fluoro–Salicylaldehyde: Synthesis, Characterization, Antioxidant Properties, Interaction with DNA and Serum Albumins” (Molecules, 2022)
